# Laboratory results taken from patent US20020002294A1, “Estrogenic compounds as antiangiogenic agents” (priority 1997, published 2002).
# What was measured:
# [1] = test system: CNS cell lines; test: Human Tumor Cell Panel Assay in vitro, CNS panel; type: cell-based; set-up: key: Most sensitive cell panes are marked with ✓
# Source text: (§1) The tubulin activities, breast cancer cell line activities, and the cell panels most sensitive to selected analogs are shown in Tables 3 and 4.
# [2] = test system: Ovarian cell lines (especially OVCAR-3); test: Human Tumor Cell Panel Assay in vitro, ovarian panel; type: cell-based; set-up: key: Most sensitive cell panes are marked with ✓
# Source text: as §1
# [3] = test system: tubulin; test: inhibition of [3H]colchicine binding to tubulin; details: 1.0 μM tubulin, 10 min at 37° C.
# Method: Incubation was for 10 min. at 37° C.
# Incubation was for 10 mi. at 37° C. Average values obtained in three independent experiments are presented in the table, except for 2-methoxyestrone, which was only examined twice. S.D., standard deviation.
# [4] = test system: MDA-MB-435 estrogen receptor-negative human breast carcinoma cells; test: In Vivo Tumor Growth Inhibition; set-up: species or system SCID mice; details: 29 days at 75 mg/kg p.o.
# Method: To determine the antitumor activity of 2-ME and derivatives, SCID mice were s.c. inoculated with 10^6 MDA-MB-435 estrogen receptor-negative human breast carcinoma cells. Treatment was initiated on day 12 when tumor volumes reached 75-100 mm3 in volume. Drugs were suspended in 0.5 g/100 ml of carboxymethylcellulose with sterile glass beads, vortexed for 5 minutes, and administered p.o. in a volume of 0.1 ml. Control mice received 0.1 ml of carboxymethylcellulose p.o. Serial caliper measurements of perpendicular diameters were used to calculate tumor volume using the following: (shortest diameter)^2×(longest diameter)×0.52. T/C was calculated as the volume of treated tumors over the volume of control tumors. A smaller number indicates a greater inhibition of tumor growth.
# [5] = test system: 8 human breast cancer cell lines; test: human tumor cell panel assay in vitro, breast panel; type: cell-based; set-up: key to Most Sensitive Cell Lines in Human Tumor Cell Panel Assay: Breast: Most sensitive cell panes are marked with ✓
# Source text: as §1
# [6] = target: T1, rat uterine cytosolic estrogen receptor (Rattus norvegicus, UniProt P06211); test: Relative Binding Affinity to estrogen receptor; details: at 0°; 3H-Estradiol=100
# T1 construct: from tissue; host or cells: rat uterine cytosol (per the result head)
# T1 sequence (P06211 1-600): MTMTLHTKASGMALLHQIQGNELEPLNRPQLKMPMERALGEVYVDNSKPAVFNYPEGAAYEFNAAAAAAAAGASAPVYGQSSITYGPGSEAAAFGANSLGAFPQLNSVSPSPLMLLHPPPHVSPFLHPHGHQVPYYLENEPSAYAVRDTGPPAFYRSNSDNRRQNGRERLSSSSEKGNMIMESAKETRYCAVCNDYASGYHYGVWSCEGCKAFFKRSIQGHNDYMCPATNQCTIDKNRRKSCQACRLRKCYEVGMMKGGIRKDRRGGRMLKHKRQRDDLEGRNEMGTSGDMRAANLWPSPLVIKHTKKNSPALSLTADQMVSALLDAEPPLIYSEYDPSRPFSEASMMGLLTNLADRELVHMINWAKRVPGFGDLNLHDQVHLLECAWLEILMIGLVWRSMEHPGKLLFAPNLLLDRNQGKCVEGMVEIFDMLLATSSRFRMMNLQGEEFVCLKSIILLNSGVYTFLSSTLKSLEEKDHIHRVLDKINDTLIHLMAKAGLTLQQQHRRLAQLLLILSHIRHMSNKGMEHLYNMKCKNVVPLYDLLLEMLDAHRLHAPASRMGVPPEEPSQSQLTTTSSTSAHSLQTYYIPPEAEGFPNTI
# Source text: as §1
# [7] = test system: new blood vessel cells (angiogenesis); test: chick embryo chorioallantoic membrane (CAM) assay; type: in vivo; details: 100 mg disk, after 48 hours
# Method: A suitable assay is the chick embryo chorioallantoic membrane (CAM) assay described by Crum et al. Science 230:1375 (1985). See also, U.S. Pat. No. 5,001,116, hereby incorporated by reference, which describes the CAM assay. Briefly, fertilized chick embryos are removed from their shell on day 3 or 4, and a methylcellulose disc containing the drug is implanted on the chorioallantoic membrane. The embryos are examined 48 hours later and, if a clear avascular zone appears around the methylcellulose disc, the diameter of that zone is measured.
# [8] = test system: corneal neovascularization; test: Mouse Corneal Micropocket Assay; type: in vivo, mice; details: 150 mg/kg, daily oral, 5 days
# Method: Five- to 7-week-old SCID female mice were obtained from Massachusetts General Hospital (Boston, Mass.), Immunocompetent 7-9-week-old female C57BL/6 mice were obtained from ARCH Technical Services, Children's Hospital (Boston, Mass.). All animal studies were conducted according to protocols approved by the Animal Ethics Committee of Children's Hospital. Animals were anesthetized in a methoxyflurane (Pittman-Moore, Mundelein, Ill.) chamber prior to all procedures and were observed until fully recovered. Animals were sacrificed by a lethal dose of methoxyflurane.
# Mouse Corneal Micropocket Assay To study the effect of microtubule inhibitors on angiogenesis in vivo, a model of angiogenesis in the mouse cornea was used in […] mice as described previously (Kenyon, B. B., Voest, E. E., Chen, C. C., Folkman, J., and D'Amato, R. J. A model of angiogenesis in the mouse cornea. Invest. Ophthalmol. & Visual Sci., 76: 1625-1632, 1996). In brief, after animals were anesthetized, corneal micropockets were created in both eyes with a modified von Graefe cataract knife. Into each pocket, a 0.4 mm ×0.4 mm×0.2 mm sucrose aluminum sulfate (Bukh Meditee, Copenhagen, Denmark) pellet coated with hydron polymer type NCC (IHN Sciences, New Brunswick, N.J.) containing 80 ng of bFGF or 160 ng of human recombinant […] (gift from Reprogenesis, Cambridge, Mass.) was implanted 1.0-1.2 mm from the limbal vessels (bFGF experiments) or 0.5-0.7 mm from the limbus (VEGF experiments). Erythromycin ointment (E. Fougera, Melville, N.Y.) was applied to each operated eye. The sucralfate acts to stabilize the growth factor and to slow its release from the hydron. Before testing each drug in this assay, we found the maximal dose that could be administered daily for 5 consecutive days without producing signs of toxicity (i.e., no hair loss, diarrhea, infection, lethargy, or weight loss). The treated groups received daily oral administration for 5 consecutive days of the stated dosage of 2-ME or a derivative thereof suspended in 0.5 g/100 ml of carboxymethylcellulose.
# Treatment was started on the day of pellet implantation. […] For this purpose, the eyes of the mice were examined by slit-lamp biomicroscopy. Area of corneal neovascularization was calculated using a modified formula for a half-ellipse: Area (mm^2)=[π×clock hours×length (mm)×0.2 mm]. This formula provides the most accurate approximation of the area of neovascularization that grows toward the pellet. (Kenyon, B. B., Voest, E. E., Chen, C. C., Folkman, J., and D'Amato, R. J. A model of angiogenesis in the mouse cornea. Invest. Ophthalmol. & Visual Sci., 76: 1625-1632, 1996).
# [9] = test system: Melanoma cell lines; test: Human Tumor Cell Panel Assay in vitro, melanoma panel; type: cell-based; set-up: key: Most sensitive cell panes are marked with ✓
# Source text: as §1
structure (smiles),measurement,setting,value
"COc1cc2c(cc1O)CCC1C2CCC2(C)C(O)CCC12 (centres unmarked) [NSC 659853, 2-Methoxyestradiol]",Most Sensitive Cell Lines in Human Tumor Cell Panel Assay: CNS,[1],✓
same,Most Sensitive Cell Lines in Human Tumor Cell Panel Assay: Ovarian,[2],✓
same,"inhibition of colchicine binding to tubulin (FIG. 2), in words",[3]; 5 μM [3H]colchicine,inhibits colchicine binding to tubulin
same,Percentage Inhibition of colchicine binding to tubulin,"[3]; 100 μM inhibitor, 2 μM [3H]colchicine, ± S.D.",82 ± 2%
same,T/C (volume of treated tumors over volume of control tumors),[4],0.40
same,Most Sensitive Cell Lines in Human Tumor Cell Panel Assay: Breast,"[5]; 8 cell lines, only MCF-7 and T-47D express estrogen and progesterone receptors",✓
same,IC50,"[5]; Homo sapiens, cell panel assay in vitro, two values per cell separated by /, read-out: Tumor Panel: Average log IC50(Molar) against 8 human breast cancer cell lines (converted)",234 nM
same,"RBA, Relative Binding Affinity to rat uterine cytosolic estrogen receptor",[6],0.245
same,inhibition of cell mitosis and growth of new blood vessels in CAM assay,[7],found to inhibit cell mitosis and the growth of new blood vessels
same,inhibition in corneal pocket assay,[8],25%
same,Most Sensitive Cell Lines in Human Tumor Cell Panel Assay: Melanoma,[9],✓
